The source of these data is ChEMBL document CHEMBL3856192, “Aroylhydrazone iron chelators: Tuning antioxidant and antiproliferative properties by hydrazide modifications” (Eur J Med Chem, 2016).

Series [1] in a line: Cytotoxicity against rat H9c2 cells assessed as decrease in cell viability after 72 hrs by neutral red staining based assay. The series is classed as toxicity.
For series [2], the system named is H9c2. In words: Protection against t-BHP-induced oxidative injury in rat H9c2 cells assessed as increase in cell viability incubated for 10 mins followed by stimulation with t-BHP for 24 hrs by neutral red staining based assay. The series is classed as functional.
Series [3] can be described thus: Stability in rabbit plasma assessed as parent compound remaining at 100 uM after 10 hrs by HPLC analysis. The series is classed as ADME, cell-free, Oryctolagus cuniculus. The settings on record: read-out: Stability.
Series [4] in a line: Drug uptake in human SK-N-MC cells by beta scintillation counting analysis. The series is classed as ADME, cell-based.
Series [5] can be described thus: Iron chelating activity assessed as Fe2+-compound complex formation at 5 uM measured for 360 secs by calcein based fluorescence assay relative to salicylaldehyde isonicotinoyl hydrazone. The settings on record: 0.1 h. The series is classed as physicochemical.
Series [6] concerns MCF7. Kind of series: Induction of transferrin labeled 59Fe mobilization in human MCF7 cells assessed as cellular 59Fe released at 25 uM after 3 hrs by gamma scintillation counting analysis (reference value: 11%). The series is classed as functional.
Series [7] concerns MCF7. In words: Inhibition of 59Fe uptake in human MCF7 cells labeled with 59Fe transferrin at 25 uM after 3 hrs relative to control. The series is classed as functional. To be noted: MCF7, 3 h.
Series [8] in a line: Cytotoxicity against human MCF7 cells assessed as decrease in cell viability after 72 hrs by neutral red staining based assay. The series is classed as functional. The settings on record: MCF7, 72 h.
Series [9] is described as follows: Cytotoxicity against human HL60 cells assessed as decrease in cell viability after 72 hrs by MTT assay. To be noted: HL-60, 72 h. The series is classed as functional, cell-based. Background: Formazan colour is commonly taken as a measure of viable cells.
For series [10], the system named is H9c2. Kind of series: Selectivity index, ratio of IC50 for rat H9c2 cells to IC50 for human MCF7 cells. The series is classed as functional.
The subject of series [11] is H9c2. In words: Selectivity index, ratio of IC50 for rat H9c2 cells to IC50 for human HL60 cells. The series is classed as functional.
Series [12] in a line: Antiproliferative activity against human SK-N-MC cells after 22 to 72 hrs by MTT assay. The series is classed as functional, cell-based.
A short description of series [13]: Antiproliferative activity against rat L8 cells after 22 to 72 hrs by MTT assay. The series is classed as cell-based.
Series [14] is described as follows: Antiproliferative activity against HUVEC after 22 to 72 hrs by MTT assay. The series is classed as cell-based. To be noted: Homo sapiens.
For a further series, the system named is SK-N-MC. Kind of series: Selectivity index, ratio of IC50 for HUVEC to IC50 for human SK-N-MC cells.
A short description of series [15]: Selectivity index, ratio of IC50 for rat L8 cells to IC50 for human SK-N-MC cells. The series is classed as functional.
Series [16] is described as follows: Iron chelating activity assessed as Fe3+-compound complex-induced antioxidant activity by measuring ascorbate oxidation level at iron binding equivalent of 3 measured after 10 to 40 mins in presence of 500 uM of citrate relative to control. The series is classed as physicochemical.
Series [17] deals with H9c2. In words: Protection against H202-induced oxidative injury in rat H9c2 cells assessed as increase in cell viability after 24 hrs by neutral red staining based assay. The series is classed as functional. To be noted: H9c2, 24 h.
Series [18] in a line: Iron chelating activity assessed as Fe3+-compound complex-induced antioxidant activity by measuring decrease in ascorbate oxidation level at iron binding equivalent of 3 measured after 10 to 40 mins in presence of 100 uM of citrate relative to control. The series is classed as physicochemical.
Series [19] deals with H9c2. Kind of series: Selectivity index, ratio of IC50 for rat H9c2 cells to EC50 for rat H9c2 cells. The series is classed as functional.
Series [20] is described as follows: Iron chelating activity assessed as Fe3+-compound complex-induced antioxidant activity by measuring ascorbate oxidation level at iron binding equivalent of 0.1 measured after 10 to 40 mins in presence of 500 uM of citrate relative to control. The series is classed as physicochemical.

The structures appear in SMILES notation.

One may read the IC50 as the concentration that inhibits the measured activity by half. A word on the EC50: it is the concentration needed to bring the measured effect to its halfway point. What is called Kd is the constant that tells how readily two partners part at equilibrium. Low values mean a tighter complex, high ones a looser complex. The inhibition is the share of the control response that was lost under treatment. A low value points to a response near the control.

Regarding `C/C(=N\NC(=O)c1ccncc1)c1ccccc1O`, the IC50 at 72 h in series [1] is 12.6 µM. For the same compound, the EC50 with H9c2 [2] was 11.4 µM. Moreover, the remaining at 10 h, 100 µM in series [3] amounted to 26%.

`CN(C)C(=S)NN=[14C](c1ccccn1)c1ccccn1` had a Kd in series [4] of 2450 nM. That is a single-digit micromolar value.

Consider `CC/C(=N\NC(=O)c1cccc2ccccc12)c1ccccc1O`, for which the Activity is 84 to 109% in series [5] and 50 - 56% with MCF7 [6]. Also, the inhibition at 25 µM in the series with MCF7 [7] fell in the range of 17 to 61%. Besides, in [1], the IC50 at 72 h is > 200 µM. Besides, the IC50 in series [8] and in [9] was 3.5 µM each time. Besides, the “Ratio IC50” value in the series on H9c2 [10] and in the series on H9c2 [11] was >57 in each case. In addition, the remaining at 10 h, 100 µM in [3] turned out to be 76%.

For the compound `O=C(N/N=C/c1c(O)ccc2ccccc12)c1ccncc1`, the results for the IC50 in [12], in series [13] and in series [14] were 500 nM, 5.4 µM and 20.1 µM, respectively. Further, the “Ratio IC50” value in the series on SK-N-MC amounted to 40; in [15], 11.

Consider `CC/C(=N\NC(=O)c1cccnc1)c1ccccc1O`, for which the figures for the Activity (in series [5]; in the series with MCF7 [6]; in series [16]) were 84 to 109%, 50 - 56% and 10 to 44%, respectively. In addition, the inhibition at 25 µM in the series on MCF7 [7] lay in the range of 17 to 61%. For the same compound, the EC50 with H9c2 [17] came out at 30 µM. For the same compound, in series [1], the IC50 at 72 h amounted to 7.1 µM. Also, the IC50 in [8] is 5 µM; in series [9] it was 4.9 µM. Besides, the “Ratio IC50” value with H9c2 [10] was 1.4; in the series with H9c2 [11], 1.5.

As for `C/C(=N\NC(=O)c1ccnnc1)c1ccccc1O`, the Activity in [5] is 97 to 107%; in the series on MCF7 [6] it was 54 - 57%; in series [16], 10 to 44%. The compound also returned an inhibition at 25 µM in the series with MCF7 [7] of 17 to 61%. For the same compound, the concentration giving a half-maximal response (EC50) in the series with H9c2 [17] was found to be 55.3 µM. Besides, the IC50 at 72 h in series [1] amounted to 22.8 µM. Further, the IC50 stood at 7.6 µM in series [8] and 6.4 µM in series [9]. For the same compound, the “Ratio IC50” value in the series with H9c2 [10] was 3; in the series with H9c2 [11], 3.6.

For `CC/C(=N\NC(=O)c1cnccn1)c1ccccc1O`, the figures for the Activity (in series [5]; with MCF7 [6]; in [16]) were 84 to 109%, 50% and 10 to 44%, respectively. Moreover, in the series with MCF7 [7], the inhibition at 25 µM was in the range of 17 to 61%. Also, the half-maximal inhibitory concentration (IC50) at 72 h in series [1] was > 100 µM. Also, the IC50 in [8] worked out at 27.3 µM; in series [9], 27 µM. Besides, the “Ratio IC50” value in the series with H9c2 [10] and in the series on H9c2 [11] was >4 throughout.

Regarding `C/C(=N\NC(=O)c1cccc2ccccc12)c1ccccc1O`, the Activity in series [5] was 79%; in the series with MCF7 [6], 54 - 57%. In the series with MCF7 [7], this compound showed an inhibition at 25 µM of 17 to 61%. For the same compound, the IC50 at 72 h in [1] is > 200 µM. For the same compound, the IC50 in series [8] was found to be 3.8 µM; in series [9], 3.9 µM. For the same compound, the “Ratio IC50” value with H9c2 [10] and in the series on H9c2 [11] was >52 each time. For the same compound, the remaining at 10 h, 100 µM in series [3] was determined as 95%.

For `C/C(=N\NC(=O)c1cccnc1)c1ccccc1O`, the Activity in [5] is 97 to 107%; with MCF7 [6], 54 - 57%; in series [16] it was 10 to 44%. The inhibition at 25 µM in the series on MCF7 [7] was in the range of 17 to 61%. Besides, the IC50 at 72 h in [1] turned out to be 6.8 µM. Besides, the results for the IC50 in series [8] and in [9] were 8.3 µM and 7.5 µM, respectively. In addition, the “Ratio IC50” value stood at 0.8 with H9c2 [10] and 0.9 with H9c2 [11].

Turning to `C/C(=N\NC(=O)c1cnccn1)c1ccccc1O`, the Activity in series [5] is 97 to 107%; in the series with MCF7 [6], 42%; in series [16], 10 to 44%. The inhibition at 25 µM in the series with MCF7 [7] fell in the range of 17 to 61%. Further, the IC50 at 72 h in [1] was found to be 41.2 µM. Also, the figures for the IC50 in series [8] and in series [9] were 22.4 µM and 22.3 µM, respectively. Besides, the “Ratio IC50” value is recorded as 1.8 with H9c2 [10] and 1.9 in the series with H9c2 [11].

As to `CC/C(=N\NC(=O)c1ccc(-c2ccccc2)cc1)c1ccccc1O`, the Activity in [5] was 84 to 109%; in the series on MCF7 [6], 51%. In the series with MCF7 [7], this compound yielded an inhibition at 25 µM of 17 to 61%. The IC50 at 72 h in [1] is > 100 µM. The concentration for half-maximal inhibition (IC50) in series [8] and in series [9] was 1.3 µM throughout. The “Ratio IC50” value in the series on H9c2 [10] and in the series with H9c2 [11] was >78 each time. In [3], the remaining at 10 h, 100 µM stood at 41%.

Turning to `C/C(=N\NC(=O)c1ccc(-c2ccccc2)cc1)c1ccccc1O`, the Activity in series [5] is recorded as 7%; in the series with MCF7 [6] it was 41%. In the series with MCF7 [7], this compound gave an inhibition at 25 µM of 17 to 61%. The IC50 at 72 h in [1] is > 100 µM. Moreover, the IC50 in series [8] turned out to be 4.6 µM; in [9], 2.7 µM. Moreover, the results for the “Ratio IC50” value in the series with H9c2 [10] and with H9c2 [11] were >22 and >37, respectively. Besides, the remaining at 10 h, 100 µM in [3] stood at 90%.

`CC/C(=N\NC(=O)c1ccncc1)c1ccccc1O`: the IC50 in series [8] worked out at 34.7 µM. In the series on H9c2 [2], the EC50 amounted to 17.8 µM. Moreover, the remaining at 10 h, 100 µM in [3] was determined as 41%.

Consider `CC/C(=N\NC(=O)c1ccnnc1)c1ccccc1O`, for which the Activity was 84 to 109% in series [5], 50 - 56% with MCF7 [6], 10 to 44% in series [16] and “Active” in series [18]. This compound yielded an inhibition at 25 µM in the series on MCF7 [7] of 17 to 61%. Further, the EC50 in the series on H9c2 [17] amounted to 25 µM. Moreover, in [1], the IC50 at 72 h is > 200 µM. Also, the half-maximal inhibitory concentration (IC50) in series [8] came to 14.9 µM; in series [9], 9.1 µM. The “Ratio IC50” value with H9c2 [10] is listed as >13; in the series on H9c2 [11] it was >21. The remaining at 10 h, 100 µM in series [3] was 85%. Besides, the “Ratio IC50/EC50” value in the series with H9c2 [19] is recorded as 8.

Take `CC(=O)N(O)CCCCCNC(=O)CCC(=O)N(O)CCCCCNC(=O)CCC(=O)N(O)CCCCCN` [DEFEROXAMINE]: the figures for the Activity in series [16] and in [20] were 16% and 93%, respectively.

As to `O=C(N/N=C/c1ccccc1O)c1ccncc1` [SALINAZID], the Activity is reported as 58% with MCF7 [6] and 7% in series [16]. This compound displayed an inhibition at 25 µM with MCF7 [7] of 15%. For the same compound, the IC50 at 72 h in series [1] worked out at 28.9 µM. Besides, the values for the IC50 in series [8] and in series [9] were 12.4 µM and 5.7 µM, respectively. The “Ratio IC50” value in the series with H9c2 [10] was 2.3; in the series on H9c2 [11] it was 5.1. The EC50 with H9c2 [2] came out at 18.2 µM.
